Data taken from patent US20070128217A1 (priority 2003, published 2007).

Assays:
[1] = test system: antibodies in sera from SARS patients (sera 1a, 1b, 2, 6, 37, 62, London, SARS-yellow, SARS-green); assay type: binding, human; parameters: Binding of serum 6 to linear peptides of protein X1 of SARS-CoV Urbani / Binding of serum 37 to linear peptides of protein X1 of SARS-CoV Urbani / Binding of serum 6 to looped/cyclic peptide (PEPSCAN-ELISA) / Binding of serum 37 to looped/cyclic peptide (PEPSCAN-ELISA) / Binding of serum 37 to looped/cyclic peptides of protein X1 of SARS-CoV Urbani / Binding of serum 6 to linear peptides of protein X2 / Binding of serum 37 to linear peptides of protein X2 / Binding of serum 37 to looped/cyclic peptides of protein X2 of SARS-CoV Urbani / Binding of serum 6 to linear peptides of protein M of SARS-CoV Urbani / Binding of serum 37 to linear peptides of protein M of SARS-CoV Urbani / Binding of serum 6 to looped/cyclic peptides of protein M of SARS-CoV Urbani / Binding of serum 37 to looped/cyclic peptides of protein M of SARS-CoV Urbani / Binding of serum 6 to linear peptides of protein X3 of SARS-CoV Urbani / Binding of serum 37 to linear peptides of protein X3 of SARS-CoV Urbani / Binding of serum 37 to looped/cyclic peptides of protein X3 of SARS-CoV Urbani / Binding of serum 6 to linear peptides of protein X4 of SARS-CoV Urbani / Binding of serum 37 to linear peptides of protein X4 of SARS-CoV Urbani / Binding of serum 37 to looped/cyclic peptides of protein X4 of SARS-CoV Urbani / Binding of serum 6 to linear peptides of protein X5 of SARS-CoV Urbani / Binding of serum 37 to linear peptides of protein X5 of SARS-CoV Urbani / Binding of serum 37 to looped/cyclic peptides of protein X5 of SARS-CoV Urbani / Binding of serum 6 to linear peptides of protein N of SARS-CoV Urbani / Binding of serum 37 to linear peptides of protein N of SARS-CoV Urbani / Binding of serum 6 to linear peptide (PEPSCAN-ELISA) / Binding of serum 1a to looped/cyclic peptides of protein N of SARS-CoV Urbani / Binding of serum 1b to looped/cyclic peptides of protein N of SARS-CoV Urbani / Binding of serum 2 to looped/cyclic peptides of protein N of SARS-CoV Urbani / Binding of serum 6 to looped/cyclic peptides of protein N of SARS-CoV Urbani / Binding of serum 37 to looped/cyclic peptides of protein N of SARS-CoV Urbani / Binding of serum 62 to looped/cyclic peptides of protein N of SARS-CoV Urbani / Binding of serum London to looped/cyclic peptides of protein N of SARS-CoV Urbani / Binding of serum SARS-green to looped/cyclic peptides of protein N of SARS-CoV Urbani: unit not given here
[2] = test system: control sera (pooled serum of ten healthy LUMC hospital workers; commercial negative donor pooled serum from the Dutch bloodbank); assay type: binding, human; parameters: Binding of Control serum LUMC to linear peptides / Binding of Control serum Blood-bank to linear peptides / Binding of Control serum LUMC to looped peptides / Binding of Control Serum Blood-Bank to Looped peptides / Binding of Control serum LUMC to linear peptides of the protein M of SARS-CoV Urbani / Binding of Control serum Blood-bank to linear peptides of the protein M of SARS-CoV Urbani / Binding of Control serum LUMC to looped peptides of the protein M of SARS-CoV Urbani / Binding of Control Serum Blood-Bank to Looped peptides of the protein M of SARS-CoV Urbani: unit not given here
[3] = test system: rabbit serum obtained by immunizing a rabbit with the SARS-CoV strain Frankfurt 1; assay type: binding; parameters: Binding of a rabbit serum to linear peptides / Binding of a rabbit serum to looped peptides / Rabbit serum linear peptides / Rabbit serum looped peptides / Binding of a rabbit serum to linear peptides of protein N of SARS-CoV Urbani (Rabbit serum linear peptides) / Binding of a rabbit serum to looped/cyclic peptides of protein N of SARS-CoV Urbani (Rabbit serum looped peptides): unit not given here

FMMSRRRLLACLCKH
1.2: Binding of serum London to looped/cyclic peptides of protein X2 of SARS-CoV Urbani [1]
0.4: Binding of serum 1a to looped/cyclic peptides of protein X2 of SARS-CoV Urbani [1] | Binding of serum 1b to looped/cyclic peptides of protein X2 of SARS-CoV Urbani [1] | Binding of serum 62 to looped/cyclic peptides of protein X2 of SARS-CoV Urbani [1] | Binding of Control serum LUMC to linear peptides [2] | Binding of a rabbit serum to linear peptides [3]
0.5: Binding of serum 1b to linear peptides of protein X2 [1] | Binding of serum 2 to linear peptides of protein X2 [1] | Binding of serum 6 to looped/cyclic peptides of protein X2 of SARS-CoV Urbani [1] | Binding of serum SARS-green to linear peptides of protein X2 [1] | Binding of serum SARS-yellow to linear peptides of protein X2 [1] | Binding of serum SARS-yellow to looped/cyclic peptides of protein X2 of SARS-CoV Urbani [1] | Binding of Control serum LUMC to looped peptides [2]
0.6: Binding of serum 37 to linear peptides of protein X2 [1] | Binding of serum 62 to linear peptides of protein X2 [1] | Binding of Control Serum Blood-Bank to Looped peptides [2] | Binding of a rabbit serum to looped peptides [3]
0.7: Binding of serum 1a to linear peptides of protein X2 [1] | Binding of serum 6 to linear peptides of protein X2 [1] | Binding of serum London to linear peptides of protein X2 [1] | Binding of Control serum Blood-bank to linear peptides [2]
0.3: Binding of serum 2 to looped/cyclic peptides of protein X2 of SARS-CoV Urbani [1] | Binding of serum 37 to looped/cyclic peptides of protein X2 of SARS-CoV Urbani [1] | Binding of serum SARS-green to looped/cyclic peptides of protein X2 of SARS-CoV Urbani [1]

FRIAIWNLDVIISSI
0.7: Binding of serum 1a to looped/cyclic peptides of protein X3 of SARS-CoV Urbani [1] | Binding of serum 2 to looped/cyclic peptides of protein X3 of SARS-CoV Urbani [1] | Binding of serum 62 to linear peptides of protein X3 of SARS-CoV Urbani [1] | Binding of serum London to linear peptides of protein X3 of SARS-CoV Urbani [1] | Binding of serum SARS-yellow to linear peptides of protein X3 of SARS-CoV Urbani [1] | Binding of Control serum Blood-bank to linear peptides of the protein X3 of SARS-CoV Urbani [2] | Binding of Control serum LUMC to looped peptides of the protein X3 of SARS-CoV Urbani [2]
0.5: Binding of serum 1b to linear peptides of protein X3 of SARS-CoV Urbani [1] | Binding of serum 1b to looped/cyclic peptides of protein X3 of SARS-CoV Urbani [1] | Binding of serum 37 to linear peptides of protein X3 of SARS-CoV Urbani [1]
0.2: Binding of serum London to looped/cyclic peptides of protein X3 of SARS-CoV Urbani [1] | Binding of serum SARS-green to looped/cyclic peptides of protein X3 of SARS-CoV Urbani [1] | Rabbit serum looped peptides [3]
0.6: Binding of serum 2 to linear peptides of protein X3 of SARS-CoV Urbani [1] | Binding of serum 37 to looped/cyclic peptides of protein X3 of SARS-CoV Urbani [1] | Binding of serum 62 to looped/cyclic peptides of protein X3 of SARS-CoV Urbani [1] | Binding of Control serum LUMC to linear peptides of the protein X3 of SARS-CoV Urbani [2]
0.8: Binding of serum 1a to linear peptides of protein X3 of SARS-CoV Urbani [1] | Binding of serum SARS-yellow to looped/cyclic peptides of protein X3 of SARS-CoV Urbani [1] | Binding of Control Serum Blood-Bank to Looped peptides of the protein X3 of SARS-CoV Urbani [2]
0.4: Binding of serum 6 to linear peptides of protein X3 of SARS-CoV Urbani [1] | Binding of serum SARS-green to linear peptides of protein X3 of SARS-CoV Urbani [1]
0.3: Binding of serum 6 to looped/cyclic peptides of protein X3 of SARS-CoV Urbani [1] | Rabbit serum linear peptides [3]

FRLFARTRSMWSFNP
0.2: Binding of serum SARS-yellow to linear peptides of protein M of SARS-CoV Urbani [1] | Rabbit serum linear peptides [3] | Rabbit serum looped peptides [3]
0.3: Binding of serum London to looped/cyclic peptides of protein M of SARS-CoV Urbani [1] | Binding of serum SARS-green to looped/cyclic peptides of protein M of SARS-CoV Urbani [1]
0.6: Binding of serum 2 to linear peptides of protein M of SARS-CoV Urbani [1] | Binding of serum 2 to looped/cyclic peptides of protein M of SARS-CoV Urbani [1] | Binding of serum 37 to looped/cyclic peptides of protein M of SARS-CoV Urbani [1] | Binding of serum 62 to looped/cyclic peptides of protein M of SARS-CoV Urbani [1] | Binding of serum SARS-green to linear peptides of protein M of SARS-CoV Urbani [1] | Binding of Control serum LUMC to looped peptides of the protein M of SARS-CoV Urbani [2]
0.5: Binding of serum 1b to linear peptides of protein M of SARS-CoV Urbani [1] | Binding of serum 1b to looped/cyclic peptides of protein M of SARS-CoV Urbani [1] | Binding of serum 6 to linear peptides of protein M of SARS-CoV Urbani [1] | Binding of serum 37 to linear peptides of protein M of SARS-CoV Urbani [1] | Binding of serum 62 to linear peptides of protein M of SARS-CoV Urbani [1] | Binding of serum SARS-yellow to looped/cyclic peptides of protein M of SARS-CoV Urbani [1]
0.7: Binding of serum 1a to looped/cyclic peptides of protein M of SARS-CoV Urbani [1]
0.8: Binding of serum 1a to linear peptides of protein M of SARS-CoV Urbani [1] | Binding of serum 6 to looped/cyclic peptides of protein M of SARS-CoV Urbani [1] | Binding of Control Serum Blood-Bank to Looped peptides of the protein M of SARS-CoV Urbani [2] | Binding of Control serum Blood-bank to linear peptides of the protein M of SARS-CoV Urbani [2] | Binding of Control serum LUMC to linear peptides of the protein M of SARS-CoV Urbani [2]
0.4: Binding of serum London to linear peptides of protein M of SARS-CoV Urbani [1]

FTEVYYQLESTQITT
0.6: Binding of Control Serum Blood-Bank to Looped peptides [2] | Binding of Control serum Blood-bank to linear peptides [2] | Binding of Control serum LUMC to looped peptides [2]
0.4: Binding of serum 2 to looped/cyclic peptides of protein X1 of SARS-CoV Urbani [1] | Binding of serum 6 to looped/cyclic peptides of protein X1 of SARS-CoV Urbani [1] | Binding of serum SARS-yellow to looped/cyclic peptides of protein X1 of SARS-CoV Urbani [1]
0.8: Binding of serum 1a to linear peptides of protein X1 of SARS-CoV Urbani [1]
0.3: Binding of serum London to linear peptides of protein X1 of SARS-CoV Urbani [1] | Binding of serum SARS-green to looped/cyclic peptides of protein X1 of SARS-CoV Urbani [1]
0.1: Binding of a rabbit serum to linear peptides [3]
0.2: Binding of serum London to looped/cyclic peptides of protein X1 of SARS-CoV Urbani [1]
0.5: Binding of serum 1a to looped/cyclic peptides of protein X1 of SARS-CoV Urbani [1] | Binding of serum 1b to looped/cyclic peptides of protein X1 of SARS-CoV Urbani [1] | Binding of serum 2 to linear peptides of protein X1 of SARS-CoV Urbani [1] | Binding of serum 6 to linear peptides of protein X1 of SARS-CoV Urbani [1] | Binding of serum 62 to looped/cyclic peptides of protein X1 of SARS-CoV Urbani [1] | Binding of serum SARS-green to linear peptides of protein X1 of SARS-CoV Urbani [1] | Binding of serum SARS-yellow to linear peptides of protein X1 of SARS-CoV Urbani [1] | Binding of Control serum LUMC to linear peptides [2] | Binding of a rabbit serum to looped peptides [3]
0.7: Binding of serum 1b to linear peptides of protein X1 of SARS-CoV Urbani [1] | Binding of serum 37 to linear peptides of protein X1 of SARS-CoV Urbani [1] | Binding of serum 37 to looped/cyclic peptides of protein X1 of SARS-CoV Urbani [1] | Binding of serum 62 to linear peptides of protein X1 of SARS-CoV Urbani [1]
